From US20250137032A1, “TWO-COMPONENT SYSTEMS FOR USE IN CELL-FREE GENE EXPRESSION” (priority 2023, published 2025)
Where a name gives a salt, the structure may show the parent alone.

Tests used:
[1] = literature value, cited from earlier work; for Kc (kBT) (6): bending rigidity; for CPP (4): critical packing parameter; for Tm (7): membrane transition temperature, in °C (unit assumed)
[2] = Dynamic light scattering of 100% POPC vesicles in the presence of ligands (liposome stability); format: physicochemical
NarX-VanS Chimera = assay: Cell-free vancomycin-sensing NarX chimera, luciferase reporter; format: biochemical, Enterococcus faecium
NarX-RssA = biological target: T1, NarX-RssA (Serratia marcescens, UniProt Q8GP19); assay: Cell-free iron-sensing NarX chimera, luciferase reporter; format: biochemical
T1 construct: All genes were; made in house; host or cells: cell-free expression in situ, myTXTL E. coli extract, with DMPC, POPC or DOPC vesicles

[3] = tested on: cell-free protein synthesis; assay: Cell-free protein synthesis (myTXTL): NarX western blot band intensity and luminescence; format: biochemical, E. coli; details: increasing ligand concentration, NarX band intensity / luminescence (FIG. 7, FIG. 14)
Procedure: Protein expression was performed using the myTxTl system (Arbor Biosceinces). 5 μL reactions were assembled with 10 mM lipid, 0.1 nM plasmid encoding T7 RNA polymerase, 9.9 nM plasmids encoding NarX, NarL, and reporter gene (nano luciferase or GFP) in specified ratios, and various concentration of ligands. Cell-free reactions were allowed to progress at 30° C. for 16 hours. Luciferase luminescence was read using the NanoGlo luciferase system and GFP fluorescence (ex. 480 nm, em. 507 nm) was read using a Molecular Devices Spectra Max i3 plate reader. To calculate fold change, luminescence values in the presence of nitrate were divided by the luminescence values in the absence of nitrate for each replicate.
1 μL of cell-free reaction was diluted to 15 μL in Laemlli buffer and heated at 95° C. for 10 minutes. Samples were then loaded and run on a 12% Mini-PROTEAN TGX Precast Protein Gel (Bio-Rad) at 150 V for 90 minutes. Wet transfer was performed onto a PVDF membrane (Bio-Rad) for 45 min at 100 V. Membranes were then blocked for an hour at room temperature in 5% milk in TBST (pH 7.6:50 mM Tris, 150 mM NaCl, HCl to pH 7.6, 0.1% Tween) and incubated for 1 hour at room temperature or overnight at 4° C. with primary solution (anti-Flag (Sigma F1804) or anti-Myc (ab32), diluted 1:1000 in 5% milk in TBST). Primary antibody solution was decanted, and the membrane was washed three times for 5 minutes in TBST and then incubated in secondary solution at room temperature for 1 hour (HRP-anti-Mouse (CST 7076) diluted 1:3000 in 5% milk in TBST). Membranes were then washed in TBST and incubated with Clarity Western ECL Substrate (Bio-Rad) for 5 min. Blots were imaged using an Azure Biosystems c280 imager and band intensities were quantified with ImageJ.

[4] = 100% POPC vesicles in the presence of 1 mM ligand
[5] = plasmid concentrations which enabled functional NarX sensing
[6] = reporter plasmid reduced by 90%, DMPC, POPC, DOPC vesicles
[7] = 100% POPC vesicles in the presence of 100 μM ligand

Row | Structure (SMILES) | Kc (kBT) (6) [1] | CPP (4) [1] | 2 Dc (A) (2) [1] | Area (Å^2) (1) [1] | C2:C2 (Å) (6) [1] | DHH (Å) (2) [1] | F (kcal/mol/Å) (6) [1] | Ka (dyn/cm) (6) [1] | Kc^PBM (6) [1] | Kg (10^−20 J) (6) [1] | Kg/Kc (6) [1] | Kg^M (10^−20 J) (6) [1] | Kg^M/Kc^M (6) [1] | Ktw (10^−20 J) (6) [1] | Kθ (10^−20 J/nm^2) (6) [1] | Lipid Volume (A^3) (3) [1] | P-C (Å) Head group thickness (6) [1] [Å] | P:P (Å) (6) [1] | δ (Å) (6) [1] | Tm (7) [1] | further results
1 | CCCCCCCC/C=C\CCCCCCCC(=O)OC(COC(=O)CCCCCCCCCCCCCCC)COP(=O)([O-])OCC[N+](C)(C)C (stereo not drawn) [POPC, 1-palmitoyl-2-oleoyl-glycero-3-phosphocholine] | 31.7 | 0.61 | 28.8 | 64.3 | 27.52 | 37 | 0.0303 | 280 | 9.5 | −1.38 10^−20 J | −0.1 | −1.09 10^−20 J | −0.17 | 1.45 10^−20 J | 5.52 10^−20 J/nm^2 | 1231.2 | 11.02 | 38.54 | 9.64 | −9 | # of lipid contacts (5) [1]: 2.75; Lateral Pressure (pN/nm^2) (3) [1]: 517 pN/nm^2; Ro (Å) (6) [1]: −315 Å; γ chain (6) [1]: 0.198
2 | CN[C@H](CC(C)C)C(=O)N[C@H]1C(=O)N[C@@H](CC(N)=O)C(=O)N[C@H]2C(=O)N[C@H]3C(=O)N[C@H](C(=O)N[C@H](C(=O)O)c4cc(O)cc(O)c4-c4cc3ccc4O)[C@H](O)c3ccc(c(Cl)c3)Oc3cc2cc(c3O[C@@H]2O[C@H](CO)[C@@H](O)[C@H](O)[C@H]2O[C@H]2C[C@](C)(N)[C@H](O)[C@H](C)O2)Oc2ccc(cc2Cl)[C@H]1O [Vancomycin, vancomycin hydrochloride] | – | – | – | – | – | – | – | – | – | – | – | – | – | – | – | – | – | – | – | – | Diameter (nm) [2, 4]: 124.88 nm; P.D.I. [2, 4]: 0.189; sensor response to ligand (gene expression) (NarX-VanS Chimera; [5]): no gene expression was observed; sensor response to ligand (luciferase expression) (NarX-VanS Chimera; [6]): did not induce an increase in luciferase expression
3 | [Cl][Fe]([Cl])[Cl] [Iron, iron (III) chloride anhydrous] | – | – | – | – | – | – | – | – | – | – | – | – | – | – | – | – | – | – | – | – | Diameter (nm) [2, 7]: 118.62 nm; P.D.I. [2, 7]: 0.135; sensor response to ligand (gene expression) (NarX-RssA; [5]): no gene expression was observed; sensor response to ligand (luciferase expression) (NarX-RssA; [6]): functional sensors
4 | CCCCCCCCCCCCCC(=O)OC[C@H](COP(=O)([O-])OCC[N+](C)(C)C)OC(=O)CCCCCCCCCCCCC [DMPC, 1,2-dimyristoyl-sn-glycero-3-phosphocholine] | 29.3 | 1 | 25.4 | 60.6 | 24.54 | 35.3 | −0.0225 | 210 | 5.75 | −3.23 10^−20 J | −0.26 | −1.32 10^−20 J | −0.22 | 2.18 10^−20 J | 4.02 10^−20 J/nm^2 | 1100 | 11.11 | 35.65 | 9.48 | 24 | Lateral Pressure (pN/nm^2) (3) [1]: 442 pN/nm^2; Ro (Å) (6) [1]: −47 Å; γ chain (6) [1]: 0.247
5 | O.O.O.O.O.O=S(=O)([O-])[O-].[Cu+2] [copper, copper (II) sulfate pentahydrate] | – | – | – | – | – | – | – | – | – | – | – | – | – | – | – | – | – | – | – | – | effect on cell-free protein expression [3]: inhibited cell-free protein expression; effect on cell-free protein expression ([3]; listed as Copper): inhibits cell-free protein synthesis
6 | CCCCCCCC/C=C\CCCCCCCC(=O)O[C@H](COC(=O)CCCCCCCCCCCCCCC)COP(=O)(O)OCCN [POPE, 1-palmitoyl-2-oleoyl-sn-glycero-3-phosphoethanolamine] | 31.2 | 1.08 | 32.6 | 56.6 | 30.67 | 43.4 | 0.2041 | 260 | 10.78 | 5.85 10^−20 J | 0.44 | 0.06 10^−20 J | 0.01 | 2.36 10^−20 J | 8.04 10^−20 J/nm^2 | 1176.8 | 10.88 | 41.55 | 10.12 | 25 | # of lipid contacts (5) [1]: 1.5; Lateral Pressure (pN/nm^2) (3) [1]: 456 pN/nm^2; Ro (Å) (6) [1]: −2220 Å; γ chain (6) [1]: 0.188
7 | CCCCCCCC/C=C\CCCCCCCC(=O)OC[C@H](COP(=O)([O-])OCC[N+](C)(C)C)OC(=O)CCCCCCC/C=C\CCCCCCCC [DOPC, 1,2-dioleoyl-sn-glycero-3-phosphocholine] | 28.8 | 1.09 | 28.8 | 67.4 | 27.37 | 36.7 | 0.061 | 290 | 9.71 | −0.08 10^−20 J | −0.01 | −0.84 10^−20 J | −0.14 | 0.99 10^−20 J | 6.4 10^−20 J/nm^2 | 1304.5 | 10.98 | 38.35 | 9.41 | −17 | Lateral Pressure (pN/nm^2) (3) [1]: 480 pN/nm^2; γ chain (6) [1]: 0.18(5) ·
8 | CCCCCCCC/C=C\CCCCCCCC(=O)O[C@H](COC(=O)CCCCCCCCCCCCCCC)COP(=O)([O-])OCC(O)CO.[Na+] (mixture of isomers) [POPG, 1-palmitoyl-2-oleoyl-sn-glycero-3-phospho-(1′-rac-glycerol) (sodium salt)] | 26.9 | 0.7 | 27.9 | 66 | 26.88 | 38.5 | 0.0036 | 180 | 5.67 | −2.76 10^−20 J | −0.24 | −1.43 10^−20 J | −0.25 | 1.05 10^−20 J | 6.15 10^−20 J/nm^2 | 1226.6 | 10.61 | 37.49 | 9.57 | −2 | –
